Experimental data: article PMC11220827 (Frontiers in Pharmacology, 2024)
Where “and” joins values, the source holds several entries; their conditions need not be identical. Equal values may be shown once. Read-outs that look alike come from different tables or passages of the source.

Key:
[1] = target: T1, ERβ Human Estrogen NHR (Homo sapiens, UniProt Q92731); assay: biochemical; assay type: binding
T1 construct: Panlabs (named as assay provider)
Procedure: (§10) Relative light units (RLUs) of the CALUX assays were analysed as follows. For agonist assays,
(§11) background values (exposure to DMSO only) were subtracted, and the maximum activity of the
(§12) resulting in expression of the data as “percentage of maximum reference response”. Graphs were
(§13) generated using the statistical software package GraphPad Prism V5.03. Using these graphs, lowest
(§14) effect concentrations (LOECs) and PC50 concentrations were determined; LOEC is defined as the
(§15) maximum reference compound activity for agonist assays, and 20% of the maximum reference
(§16) compound activity for antagonist assays. The PC50 is defined as the concentration where the activity
(§17) of the sample equals 50% of the maximum activity of the assay’s reference compound.
(§18) the test compound was divided by the amount of estrogens and androgens produced by the solvent
(§19) control-exposed cells. A sample was considered ‘active’ if it decreased the hormone production 0.8-
(§20) targets. The list of targets included the original panel of 44 targets (including receptors, ion channels,
(§21) transporters and enzymes) recommended by 4 major pharmaceutical companies as significant
(§22) are considered to represent significant effects (i.e. a “hit”).
(§23) around the control level. For several targets, additional concentration effect assays were conducted to
(§24) determine the potency (IC50). The concentrations tested (in duplicate) ranged between 30 nM and 100

[2] = target: 5-HT2A (h) (Homo sapiens, UniProt P28223); assay: biochemical; assay type: binding; conditions: read-out: 5-HT2A (h) (agonist RL): % inhibition @10 µM
Chain of 5-HT2A (h) (P28223 whole entry): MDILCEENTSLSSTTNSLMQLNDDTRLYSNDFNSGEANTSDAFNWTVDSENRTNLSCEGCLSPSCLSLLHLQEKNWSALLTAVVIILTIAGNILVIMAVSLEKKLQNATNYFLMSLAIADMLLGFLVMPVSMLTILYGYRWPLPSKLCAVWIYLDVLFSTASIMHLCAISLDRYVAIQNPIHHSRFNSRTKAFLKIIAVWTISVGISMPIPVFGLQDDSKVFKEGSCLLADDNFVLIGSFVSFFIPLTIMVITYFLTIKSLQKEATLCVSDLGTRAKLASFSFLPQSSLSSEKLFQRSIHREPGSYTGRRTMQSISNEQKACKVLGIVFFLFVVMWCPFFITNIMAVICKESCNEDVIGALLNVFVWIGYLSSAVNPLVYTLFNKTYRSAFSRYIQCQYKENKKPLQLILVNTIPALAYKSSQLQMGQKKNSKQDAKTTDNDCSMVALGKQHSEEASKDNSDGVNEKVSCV
Excerpt: as §20, §21
(§25) reasoned to link to pathological effects. Results showing an inhibition or stimulation higher than 50%
as §22
(§26) and 50% are indicative of weak to moderate effects and results showing an inhibition (or stimulation)
as §23, §24

[3] = target: Adenosine A2A (h) (Homo sapiens, UniProt P29274); assay: Pharmacology profiling: Adenosine A2A (h) (agonist RL); assay type: binding; conditions: for inhibition at 10 µM: read-out: Adenosine A2A (h) (agonist RL): % inhibition @10 µM
Chain of Adenosine A2A (h) (P29274 whole entry): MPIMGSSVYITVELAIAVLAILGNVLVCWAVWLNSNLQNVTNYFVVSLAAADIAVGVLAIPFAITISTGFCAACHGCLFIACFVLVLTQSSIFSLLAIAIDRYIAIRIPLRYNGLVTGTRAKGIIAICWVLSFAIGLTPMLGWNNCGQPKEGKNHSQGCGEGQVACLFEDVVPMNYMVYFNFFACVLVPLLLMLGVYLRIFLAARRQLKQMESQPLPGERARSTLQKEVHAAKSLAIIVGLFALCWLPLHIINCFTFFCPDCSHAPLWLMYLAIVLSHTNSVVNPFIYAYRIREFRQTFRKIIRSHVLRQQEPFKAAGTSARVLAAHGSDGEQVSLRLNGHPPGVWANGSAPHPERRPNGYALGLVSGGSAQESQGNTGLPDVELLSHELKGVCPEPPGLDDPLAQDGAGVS
Excerpt: (§1) Cosmetics Europe’s Systemic Toxicity Taskforce (SysTox-TF) has extended the list of targets in an in vitro screen originally described by [Bowes et al. (2012)] to assess the effects of cosmetic chemicals on target molecules. The approach was based on the knowledge that various targets of pharmacological interest have been linked to human adverse drug reactions, and that screening of these has helped the pharma industry in identifying drug candidates with acceptable human safety profiles ([Bowes et al., 2012]; [Scott et al., 2022]). The methods used by the pharma industry were adapted for use in cosmetic chemical NGRA. A final list of 83 target assays were considered suitable for cosmetic chemical safety testing (see Supplementary Materials S1.7). The targets were receptors, ion channels, transporters and enzymes identified by the pharma industry as linked to human adverse drug reactions, supplemented by additional targets that have been reasoned to be linked to systemic toxicities of chemicals in animals. Chemicals that are flagged for a target are tested in follow-up dose-response assays to establish potency of the interaction. […]. [Valentin et al., 2018]; [Dodson et al., 2021]). […].
(§2) assay’s reference compound was set to 100%. For antagonist assays, the basal signal (exposure to fixed concentration of agonist only) was set to 100%. Activity of the samples was scaled accordingly, […]
(§3) Using these graphs, lowest […]
(§4) compound activity for antagonist assays.
(§5) S1.7. Pharmacology profiling assays […]
(§6) reasoned to link to pathological effects. […]
(§7) around the control level. […]
(§8) determine the potency (IC50).
(§9) Supplementary Table S4 Pharmacology profiling assay panel. […]

[4] = target: COX1 (h) (Homo sapiens, UniProt P23219); assay: Pharmacology profiling: COX1 (h); assay type: biochemical
Chain of COX1 (h) (P23219 24-599): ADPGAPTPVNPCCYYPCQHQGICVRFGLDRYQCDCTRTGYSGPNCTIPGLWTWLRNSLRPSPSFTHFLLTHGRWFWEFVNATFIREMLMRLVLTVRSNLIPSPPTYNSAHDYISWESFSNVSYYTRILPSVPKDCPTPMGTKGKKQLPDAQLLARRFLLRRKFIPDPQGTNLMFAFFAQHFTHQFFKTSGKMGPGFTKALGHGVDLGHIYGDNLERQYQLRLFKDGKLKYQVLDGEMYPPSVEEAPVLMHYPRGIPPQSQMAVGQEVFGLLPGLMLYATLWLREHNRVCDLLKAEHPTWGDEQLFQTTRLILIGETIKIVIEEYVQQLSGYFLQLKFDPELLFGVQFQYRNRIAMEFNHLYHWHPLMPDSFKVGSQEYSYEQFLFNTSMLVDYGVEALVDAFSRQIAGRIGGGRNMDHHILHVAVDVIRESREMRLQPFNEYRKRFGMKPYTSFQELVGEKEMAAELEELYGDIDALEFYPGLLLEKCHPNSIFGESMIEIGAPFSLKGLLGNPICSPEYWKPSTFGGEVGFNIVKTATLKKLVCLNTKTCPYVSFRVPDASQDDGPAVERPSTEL
Excerpt: as §20, §21, §25, §22, §26, §23, §24

[5] = target: T2, COX2 (h) (Homo sapiens, UniProt P35354); assay: Pharmacology profiling: COX2 (h); assay type: biochemical; conditions: for inhibition at 10 µM: read-out: COX2 (h): % inhibition @10 µM
T2 sequence (P35354 18-604): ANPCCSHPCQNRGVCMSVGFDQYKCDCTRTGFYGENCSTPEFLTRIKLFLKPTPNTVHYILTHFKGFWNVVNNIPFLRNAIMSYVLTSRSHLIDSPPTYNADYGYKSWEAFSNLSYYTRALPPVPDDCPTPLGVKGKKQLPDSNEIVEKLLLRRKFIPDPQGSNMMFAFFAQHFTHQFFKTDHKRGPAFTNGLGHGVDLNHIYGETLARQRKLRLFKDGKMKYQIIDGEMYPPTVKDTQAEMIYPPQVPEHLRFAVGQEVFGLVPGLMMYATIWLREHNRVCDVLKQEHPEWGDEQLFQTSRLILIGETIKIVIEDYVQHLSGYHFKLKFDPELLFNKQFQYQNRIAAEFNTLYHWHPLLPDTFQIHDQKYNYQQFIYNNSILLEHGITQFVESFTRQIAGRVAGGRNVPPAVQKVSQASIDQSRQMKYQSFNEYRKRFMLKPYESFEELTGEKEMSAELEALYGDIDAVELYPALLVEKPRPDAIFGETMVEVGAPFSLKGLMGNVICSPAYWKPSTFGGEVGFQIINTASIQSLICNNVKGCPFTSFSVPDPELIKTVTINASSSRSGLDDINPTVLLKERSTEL
Excerpt: as §1, §2, §3, §4, §5, §6, §7, §8, §9

[6] = target: PDE4D2 (h) (Homo sapiens, UniProt Q08499); assay: Pharmacology profiling: PDE4D2 (h) (phosphodiesterase 4D); assay type: biochemical; conditions: for inhibition at 10 µM: read-out: PDE4D2 (h) (phosphodiesterase 4D): % inhibition @10 µM
Chain of PDE4D2 (h) (Q08499 303-809): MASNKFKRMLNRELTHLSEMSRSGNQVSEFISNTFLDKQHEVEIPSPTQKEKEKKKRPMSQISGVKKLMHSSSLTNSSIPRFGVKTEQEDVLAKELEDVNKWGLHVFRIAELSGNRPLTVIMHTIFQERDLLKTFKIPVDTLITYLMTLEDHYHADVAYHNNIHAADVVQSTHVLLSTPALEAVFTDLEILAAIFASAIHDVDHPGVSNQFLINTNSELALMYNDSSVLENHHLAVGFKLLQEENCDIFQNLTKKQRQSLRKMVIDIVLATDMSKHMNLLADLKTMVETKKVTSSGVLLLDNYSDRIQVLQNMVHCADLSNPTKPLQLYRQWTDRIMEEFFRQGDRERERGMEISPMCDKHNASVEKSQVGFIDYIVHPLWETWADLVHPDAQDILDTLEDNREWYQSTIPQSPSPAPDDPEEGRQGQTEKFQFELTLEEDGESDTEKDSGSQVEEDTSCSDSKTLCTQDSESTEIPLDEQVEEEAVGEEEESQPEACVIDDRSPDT
Excerpt: as §1, §2, §3, §4, §5, §6, §7, §8, §9

[7] = test system: HepaRG cells; assay: Transcriptomics (TempO-Seq, BMD analysis) in HepaRG cells; assay type: cell-based; conditions: for BMD/NOEC, gene pathway deregulation: HepaRG cells; for Lowest median BMD, 3 genes passing all filters / Lowest median BMD, >5 genes passing all filters / BMD relating to estrogen effects: HepaRG, 24 h; for Lowest median BMD, 3 genes passing all filters / Lowest median BMD, >5 genes passing all filters: pathway differs per chemical; for BMD relating to estrogen effects: pathway named in the cell
Procedure: These differed with respect to the number of genes passing all filters in each pathway (3 versus 5 genes). […] Therefore, we captured pathways which fulfilled both criteria.
HepG2 (human hepatoblastoma) , MCF-7 (human breast adenocarcinoma) cells supplied by
Public Health England European Collection of Cell Cultures (ECACC, Salisbury, UK). Differentiated
HepaRG cells (HPR116, Lot HPR116239 -TA08) were from Biopredic International (Rennes, France).
Test chemicals were prepared in DMSO as serial dilutions, resulting in concentrations in media of
biological replicates were treated with the appropriate dose of co mpound for 24 h prior to cell lysis.
Biospyder human whole genome panel version 1 (https://biospyder.com).
Gene normalization and analysis
expression values for each probe were normalized by applying DESEQ2 normalization. A pseudo-
read-count of 1.0 was added to each normalized expression value, and then the values were log2
transformed . Analyses performed included Gene and Pathway, Dose Response and Network
monotonic increasing/decreasing trend were those which confirmed to the criteria : William’s trend
Those genes were then used in categorical (pathway) analysis for the Gene Ontology (GO) terms and
REACTOME pathways. Significant dose responsive pathways were determined according to : Fisher’s

[8] = Measured plasma concentrations of daidzein from dietary intake; assay type: in vivo, human; conditions: PoD 10 nM / 3.14 µM
Excerpt: Daidzein is present in soy-derived foods and is consumed in large amounts in Asian countries.

[9] = test system: U2-OS cells
Procedure: using the U2-OS based CALUX cytotox bioassay. The cytotoxicity of each test chemical was assessed using the U2-OS based cytotoxicity CALUX bioassay. Concentrations causing >20% reduction of luminescence were considered cytotoxic.
cytotoxicity (relative induction in the cytotoxicity CALUX bioassay > 80%) were used for final
evaluation of analysis results.
induction in the cytotox CALUX bioassay > 80%) were used for final evaluation of analysis results.
All analysis results were expressed in molar (M) final in well.
For the analyses in the presence of rat liver S9, 0.03% (v/v) of PB/BNF induced rat liver
S9 mix (including NADPH and an NADPH-regenerating system) was added to the cells directly after
addition of the compounds, which remained there for the duration of the exposure period (24 h) (van

[10] = test system: ER; set-up: method as in Opera; conditions: experimental call listed in the Opera output; ref Opera; cited from earlier work
[11] = test system: Estrogen pathway; set-up: method as in ToxCast; conditions: ref ToxCast, cited from earlier work; for Estrogen pathway: Cell Proliferation, Call: key: Pos = positive result; Neg = negative result; Inc = uncertain/inconclusive result; for Estrogen pathway: Dimerization, Call: key: Pos = positive result; Neg = negative result; Inc = uncertain/inconclusive result; for Estrogen pathway: Receptor binding, Call: key: Pos = positive result; Neg = negative result; Inc = uncertain/inconclusive result
[12] = test system: Androgen pathway; set-up: method as in ToxCast; conditions: ref ToxCast, cited from earlier work
[13] = test system: Thyroid pathway; set-up: method as in ToxCast; conditions: ref ToxCast, cited from earlier work
[14] = test system: Thyroid peroxidase; set-up: method as in ToxCast; conditions: ref ToxCast, cited from earlier work
[15] = test system: Deiodinase; set-up: method as in ToxCast; conditions: ref ToxCast, cited from earlier work; for AC50: read-out: Thyroid pathway: Deiodinase (Not AOP), AC50
[16] = test system: Aromatase; set-up: method as in ToxCast; conditions: ref ToxCast; cited from earlier work; note: key: Pos = positive result; Neg = negative result; Inc = uncertain/inconclusive result
[17] = test system: H295R cells
Procedure: DMSO (1% compound stock in incubation mixture).
was measured on a Berthold luminometer.
Serial dilutions of the compounds were incubated in Tris -buffer (pH 8.0) overnight at 4°C in the
incubation mixture). After incubation, TTR-bound and free T4 were separated on a Bio-Gel P-6DG
column. The eluate was added to assay medium after which TRβ CALUX cells were exposed for 24 h
For this TRβ CALUX exposure, serum-free assay medium was used.
wells plates in assay medium, and exposed for 48h to a serial dilution of the compound in triplicate
exposure, the assay medium was analysed on the ERα and AR CALUX bioassays as described
Changes in hormone levels compared to a vehicle control exposure
Preincubation with rat liver S9 fraction
To assess the effect of metabolism on the activity of the test
compound for these assays, preincubations with rat liver S9 were performed. Compounds (10 μl
DMSO stock solution) were incubated for 0 h (control) or 3 h (test condition) in a total volume of 1
ml TRIS buffer in the presence of 1% (v/v) PB/BNF induced rat liver S9 mix (including NADPH and
an NADPH-regenerating system). After incubation, the reaction was stopped by the addition of ice
cold acetone, and samples were frozen to stimulate protein precipitation. After thawing, the
precipitated protein fraction was subsequently removed by centrifugation. The supernatant, cont aining
the metabolites and any remaining non-metabolised parent compound, was concentrated under a
gentle nitrogen flow. After evaporating to dryness, the sample was taken up in 50 μl DMSO followed
by the addition of 50 μl TRIS buffer. This extract was used for the exposure of the hTPO inhibition,
as §10, §11, §12, §13, §14, §15, §16, §17, §18, §19

[18] = test system: HepG2 and MCF-7 cells; conditions: 24 h
[19] = test system: Sprague-Dawley rats; conditions: cited from earlier work
[20] = ref SCCS 2022; cited from earlier work
[21] = read-out: Estrogen pathway: Receptor binding, AC50

T1 sequence (Q92731 whole entry): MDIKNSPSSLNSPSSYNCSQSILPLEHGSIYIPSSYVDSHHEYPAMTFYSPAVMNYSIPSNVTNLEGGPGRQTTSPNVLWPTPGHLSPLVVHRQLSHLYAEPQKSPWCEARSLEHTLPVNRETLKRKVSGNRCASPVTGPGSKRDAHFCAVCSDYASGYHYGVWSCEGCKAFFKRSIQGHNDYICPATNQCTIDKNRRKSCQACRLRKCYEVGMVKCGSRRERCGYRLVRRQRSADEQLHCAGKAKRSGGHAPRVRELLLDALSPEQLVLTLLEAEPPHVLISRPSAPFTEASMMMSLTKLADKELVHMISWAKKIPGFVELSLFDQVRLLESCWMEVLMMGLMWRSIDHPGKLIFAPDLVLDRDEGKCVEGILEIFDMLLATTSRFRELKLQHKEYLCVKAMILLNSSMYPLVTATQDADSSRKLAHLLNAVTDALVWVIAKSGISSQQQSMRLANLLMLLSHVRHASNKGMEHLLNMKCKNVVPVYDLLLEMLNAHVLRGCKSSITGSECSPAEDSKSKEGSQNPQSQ

O=c1c(-c2ccc(O)cc2)coc2cc(O)ccc12 [Daidzein, DAIDZEIN]
ERβ LOEC (binding to receptor) ([1]; pharmacology profiling, LOEC = 10% of maximum reference compound activity): 3.25 nM and 3.2 nM | inhibition at 10 µM ([1]; read-out: ERβ Human Estrogen NHR Binding (Agonist): % inhibition @10 µM): 100% | inhibition at 10 µM [2]: 38.9% | inhibition at 10 µM [3]: 20.5% | inhibition at 10 µM ([4]; read-out: COX1 (h): % inhibition @10 µM): 44.7% | inhibition at 10 µM [5]: 21.6% | inhibition at 10 µM [6]: 0.04% | BMD/NOEC, gene pathway deregulation [7]: 33.1 µM | Lowest median BMD, 3 genes passing all filters [7]: 33.1 µM | Lowest median BMD, >5 genes passing all filters [7]: 39.3 µM | BMD relating to estrogen effects [7]: None | BER, highest measured dietary plasma concentration [8]: 0.003 | Cytotoxicity LOEC, +S9 ([9]; human, 24 h): >−5 Log M | Cytotoxicity LOEC, −S9 ([9]; human, 24 h): >−5 Log M | ER agonist, Experimental [10]: Active (medium) | ER binding, Experimental [10]: Active (weak) | Estrogen pathway: Cell Proliferation, Call [11]: Pos | Estrogen pathway: Dimerization, Call [11]: Pos | Estrogen pathway: Receptor binding, Call [11]: Pos | Estrogen pathway: Reporter protein Agonist, Call [11]: Pos | Estrogen pathway: Reporter protein Antagonist, Call [11]: Neg | Estrogen pathway: mRNA induction, Call [11]: Pos | AC50 ([11]; read-out: Estrogen pathway: Cell Proliferation, AC50): 150 nM | AC50 ([11]; read-out: Estrogen pathway: Dimerization, AC50): 770 nM | AC50 [11, 21]: 170 nM | AC50 ([11]; read-out: Estrogen pathway: Reporter protein Agonist, AC50): 1680 nM | AC50 ([11]; read-out: Estrogen pathway: mRNA induction, AC50): 150 nM | Androgen pathway: Cell Proliferation, Call [12]: Neg | Androgen pathway: Dimerization, Call [12]: Neg | Androgen pathway: Receptor binding, Call [12]: Neg | Androgen pathway: Reporter protein Agonist, Call [12]: Neg | Androgen pathway: Reporter protein Antagonist, Call [12]: Inc | Androgen pathway: mRNA induction, Call [12]: Neg | AC50 ([12]; read-out: Androgen pathway: Reporter protein Antagonist, AC50): 36100 nM | Thyroid pathway: Reporter protein Agonist, Call [13]: Neg | Thyroid pathway: Reporter protein Antagonist, Call [13]: Neg | Thyroid pathway: mRNA induction, Call [13]: Neg | Thyroid pathway: Thyroid peroxidase, Call [14]: Pos | AC50 ([14]; read-out: Thyroid pathway: Thyroid peroxidase, AC50): 10200 nM | Thyroid pathway: Deiodinase (Not AOP), Call [15]: Pos | AC50 [15]: 17200 nM | Steroidogenesis: Aromatase, Call [16]: Neg

O=c1c(-c2ccc(O)cc2)coc2cc(O)cc(O)c12 [Genistein, 5,7-DIHYDROXY-3-(4-HYDROXYPHENYL)-4-BENZOPYRONE]
IC50 [3]: 10000 nM | inhibition at 10 µM [3]: 52.2% | IC50 [4]: 7690 nM | IC50 [5]: 13600 nM | inhibition at 10 µM [5]: 53.8% | IC50 [6]: 738 nM | inhibition at 10 µM [6]: 87% | BMD/NOEC, gene pathway deregulation [7]: 0.04 µM | Lowest median BMD, 3 genes passing all filters [7]: 0.040 µM | Lowest median BMD, >5 genes passing all filters [7]: 0.051 µM | BMD relating to estrogen effects [7]: 0.11- Estrogen-dependent gene expression ↑ µM | Cytotoxicity LOEC, +S9 ([9]; +S9 (rat liver)): >−5 Log M | Cytotoxicity LOEC, −S9 ([9]; −S9): >−5 Log M | Steroidogenesis (AR) Testosterone LOEC, +S9 ([17]; +S9 (preincubation with rat liver S9)): −5.7 Log M | LOEC, androgen synthesis (impaired) ([17]; H295R): 3.2 × 10^−6 ± 0 M | Steroidogenesis (AR) Testosterone LOEC, −S9 ([17]; −S9): −5.5 Log M | Metabolism by HepG2 or MCF-7 cells [18]: metabolized by both cell types | ER agonist, Experimental [10]: Active (medium) | ER antagonist, Experimental [10]: Active (weak) | ER binding, Experimental [10]: Active (medium) | AC50 [11, 21]: 10 nM | AC50 ([13]; read-out: Thyroid pathway: Reporter protein Antagonist, AC50): 13100 nM | Thyroid pathway: Thyroid peroxidase, Call [14]: Pos | Thyroid pathway: Deiodinase (Not AOP), Call [15]: Pos | AC50 [15]: 2430 nM | Steroidogenesis: Aromatase, Call [16]: Neg | NOAEL, female rats ([19]; 5 ppm in feed, ref NTP 2008): 0.5 mg/kg | NOAEL, male rats (PoD) ([19]; 5 ppm in feed, ref NTP 2008): 0.3 mg/kg | LOAEL, male rats ([19]; ref SCCS 2022): 7 mg/kg | In vitro Comet assay result [20]: positive, and four were negative
